Patent US10160747B2, “Compounds and methods for kinase modulation, and indications therefor” (Plexxikon Inc., priority 2016, dated 2018)

Legend:
[1] = molecular target: CSF1R (Homo sapiens, UniProt P07333); assay: CSF1R 100 ATP 8 pt kinase assay (Table 6); type: biochemical
From the text: The following Table 6 provides data indicating FLT3 ITD, D835Y and F691L; c-KIT and CSF1R biochemical and/or cell inhibitory activity for exemplary compounds as described herein.

[2] = test system: MOLM-14 D835Y (endogenous FLT3 ITD and transfected FLT3 D835Y); assay: MOLM-14 D835Y cell proliferation assay (CellTiter-Glo); type: cell-based; details: Homo sapiens, MOLM-14, 72 h; 3 d growth, GMean
Summary of the method: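 Three-day proliferation at 37 °C/5% CO2 of FLT3-ITD MOLM-14 lines with D835Y or F691L mutation, seeded 1×10^4 per well. Compounds at eight points, top 1 μM final, 0.2% DMSO. ATP luminescence (CellTiter-Glo) gives IC50.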

CSF1R, sequence (P07333 20-972, species assumed): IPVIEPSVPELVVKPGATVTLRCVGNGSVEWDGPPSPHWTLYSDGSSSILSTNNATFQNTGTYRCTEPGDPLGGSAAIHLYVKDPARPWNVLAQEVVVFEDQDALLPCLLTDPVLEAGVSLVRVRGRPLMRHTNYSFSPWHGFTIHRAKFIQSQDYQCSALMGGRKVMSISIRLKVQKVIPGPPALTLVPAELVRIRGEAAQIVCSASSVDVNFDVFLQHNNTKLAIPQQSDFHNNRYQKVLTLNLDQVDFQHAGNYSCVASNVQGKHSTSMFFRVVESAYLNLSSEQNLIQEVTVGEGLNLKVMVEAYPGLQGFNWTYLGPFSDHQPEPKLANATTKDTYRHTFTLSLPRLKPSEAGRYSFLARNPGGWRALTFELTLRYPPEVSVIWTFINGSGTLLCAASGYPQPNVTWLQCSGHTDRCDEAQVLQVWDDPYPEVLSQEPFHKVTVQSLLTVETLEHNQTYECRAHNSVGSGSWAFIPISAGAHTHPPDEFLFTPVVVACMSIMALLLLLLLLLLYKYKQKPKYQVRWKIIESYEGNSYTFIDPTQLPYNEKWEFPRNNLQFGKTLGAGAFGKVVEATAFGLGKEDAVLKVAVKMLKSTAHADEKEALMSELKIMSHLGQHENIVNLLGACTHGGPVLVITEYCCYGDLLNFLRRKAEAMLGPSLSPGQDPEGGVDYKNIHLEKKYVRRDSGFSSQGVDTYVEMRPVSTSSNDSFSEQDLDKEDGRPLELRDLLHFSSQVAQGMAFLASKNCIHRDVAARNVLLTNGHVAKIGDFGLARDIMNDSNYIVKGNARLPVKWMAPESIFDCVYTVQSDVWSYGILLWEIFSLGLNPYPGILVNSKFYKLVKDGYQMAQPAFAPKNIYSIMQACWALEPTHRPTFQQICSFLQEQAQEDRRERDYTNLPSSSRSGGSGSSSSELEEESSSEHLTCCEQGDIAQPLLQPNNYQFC

IC50 [1] [µM]	IC50 [2] [µM]	Compound
0.0001 to 10	0.0001 to 10	Cc1n[nH]c2ncc(-c3cc(F)c(CC(=O)Nc4cncc(C(F)(F)F)c4)cc3F)cc12 [Compound P-0173, 2-[2,5-difluoro-4-(3-methyl-1H-pyrazolo[3,4-b]pyridin-5-yl)phenyl]-N-[5-(trifluoromethyl)-3-pyridyl]acetamide]
0.0001 to 10	0.0001 to 10	COc1ncc(NC(=O)Cc2ccc(-c3cnc4[nH]nc(C)c4c3)c(F)c2)cc1C(F)(F)F [Compound P-0174, 2-[3-fluoro-4-(3-methyl-1H-pyrazolo[3,4-b]pyridin-5-yl)phenyl]-N-[6-methoxy-5-(trifluoromethyl)-3-pyridyl]acetamide]
0.0001 to 10	0.0001 to 10	Cc1ncc(NC(=O)Cc2cc(F)c(-c3cnc4[nH]nc(C)c4c3)cc2F)cc1C(F)(F)F [Compound P-0175, 2-(2,5-difluoro-4-(3-methyl-1H-pyrazolo[3,4-b]pyridin-5-yl)phenyl)-N-(6-methyl-5-(trifluoromethyl)pyridin-3-yl)acetamide]
0.0001 to 10	0.0001 to 10	Cc1n[nH]c2ncc(-c3ccc(CC(=O)Nc4cncc(C(F)(F)F)c4)cc3F)cc12 [Compound P-0177, 2-[3-fluoro-4-(3-methyl-1H-pyrazolo[3,4-b]pyridin-5-yl)phenyl]-N-[5-(trifluoromethyl)-3-pyridyl]acetamide]
	0.0001 to 10	N#Cc1cc(-c2cc3cc(-c4ccc(CC(=O)Nc5ccnc(C(F)(F)F)c5)nc4)cnc3[nH]2)ccn1 [Compound P-0182, 2-[5-[2-(2-cyano-4-pyridyl)-1H-pyrrolo[2,3-b]pyridin-5-yl]-2-pyridyl]-N-[2-(trifluoromethyl)-4-pyridyl]acetamide]
	0.0001 to 10	O=C(Cc1ccc(-c2cnc3[nH]c(-c4ccc(N5CCOCC5)nc4)cc3c2)cn1)Nc1ccnc(C(F)(F)F)c1 [Compound P-0183, 2-[5-[2-(6-morpholino-3-pyridyl)-1H-pyrrolo[2,3-b]pyridin-5-yl]-2-pyridyl]-N-[2-(trifluoromethyl)-4-pyridyl]acetamide]
	0.0001 to 10	COc1ccc(-c2cc3cc(-c4ccc(CC(=O)Nc5cc(C(F)(F)F)ccn5)cc4F)cnc3[nH]2)cn1 [Compound P-0191, 2-[3-fluoro-4-[2-(6-methoxy-3-pyridyl)-1H-pyrrolo[2,3-b]pyridin-5-yl]phenyl]-N-[4-(trifluoromethyl)-2-pyridyl]acetamide]
	0.0001 to 10	O=C(Cc1ccc(-c2cnc3[nH]c(-c4ccc(N5CCOCC5)nc4)cc3c2)c(F)c1)Nc1cc(C(F)(F)F)ccn1 [Compound P-0192, 2-[3-fluoro-4-[2-(6-morpholino-3-pyridyl)-1H-pyrrolo[2,3-b]pyridin-5-yl]phenyl]-N-[4-(trifluoromethyl)-2-pyridyl]acetamide]
	0.0001 to 10	N#Cc1cc(-c2cc3cc(-c4ccc(CC(=O)Nc5cc(C(F)(F)F)ccn5)cc4F)cnc3[nH]2)ccn1 [Compound P-0194, 2-[4-[2-(2-cyano-4-pyridyl)-1H-pyrrolo[2,3-b]pyridin-5-yl]-3-fluoro-phenyl]-N-[4-(trifluoromethyl)-2-pyridyl]acetamide]
	0.0001 to 10	N#Cc1ccc(-c2cc3cc(-c4ccc(CC(=O)Nc5cncc(C(F)(F)F)c5)cc4F)cnc3[nH]2)cn1 [Compound P-0195, 2-[4-[2-(6-cyano-3-pyridyl)-1H-pyrrolo[2,3-b]pyridin-5-yl]-3-fluoro-phenyl]-N-[5-(trifluoromethyl)-3-pyridyl]acetamide]
	0.0001 to 10	COc1ccc(-c2cc3cc(-c4ccc(CC(=O)Nc5cncc(C(F)(F)F)c5)cc4F)cnc3[nH]2)cn1 [Compound P-0196, 2-[3-fluoro-4-[2-(6-methoxy-3-pyridyl)-1H-pyrrolo[2,3-b]pyridin-5-yl]phenyl]-N-[5-(trifluoromethyl)-3-pyridyl]acetamide]
	0.0001 to 10	O=C(Cc1ccc(-c2cnc3[nH]c(-c4cnn(C(F)F)c4)cc3c2)c(F)c1)Nc1cncc(C(F)(F)F)c1 [Compound P-0197, 2-[4-[2-[1-(difluoromethyl)pyrazol-4-yl]-1H-pyrrolo[2,3-b]pyridin-5-yl]-3-fluoro-phenyl]-N-[5-(trifluoromethyl)-3-pyridyl]acetamide]
	0.0001 to 10	O=C(Cc1ccc(-c2cnc3[nH]c(-c4ccc(N5CCOCC5)nc4)cc3c2)c(F)c1)Nc1cncc(C(F)(F)F)c1 [Compound P-0198, 2-[3-fluoro-4-[2-(6-morpholino-3-pyridyl)-1H-pyrrolo[2,3-b]pyridin-5-yl]phenyl]-N-[5-(trifluoromethyl)-3-pyridyl]acetamide]
	0.0001 to 10	N#Cc1cc(-c2cc3cc(-c4ccc(CC(=O)Nc5cncc(C(F)(F)F)c5)cc4F)cnc3[nH]2)ccn1 [Compound P-0199, 2-[4-[2-(2-cyano-4-pyridyl)-1H-pyrrolo[2,3-b]pyridin-5-yl]-3-fluoro-phenyl]-N-[5-(trifluoromethyl)-3-pyridyl]acetamide]
